Active and inactive are the calls of the source. The rule behind the calls is not given here.
Tested on: M. tuberculosis H37Rv growth inhibition with meropenem
Assay: dose response, H37Rv, with and without meropenem (AID 434987);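 note: growth over 7 days at 37 °C before Alamar Blue read on day 9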
[1] = M. tuberculosis H37Rv growth inhibition, measured here: IC50 without meropenem
[2] = M. tuberculosis H37Rv growth inhibition, measured here: IC90 without meropenem
[3] = measured here: IC90 with meropenem

SMILES | IC50 | IC50 [1] [µM] | IC90 [2] [µM] | IC90 [3] [µM]
CN(C)S(=O)(=O)c1ccc(C(=O)/C=C/c2cccnc2)cc1 | 5.92 µM (inactive) | 9.41 | 13.9 | 12.1
CCOC(=O)C1CSC(CC(=O)Nc2ccc(Cl)c(Cl)c2)C(=O)N1 (configuration not stated) | 10.8 µM | 47.7 | 54.3 | 35.4
CCCC(C)NC(=O)c1ccccc1SC (configuration not stated) | 36.4 µM (inactive) | 58.5 | > 100 | > 100
O=c1[nH]c(C2CCN(S(=O)(=O)c3ccc(S(=O)(=O)NC4CC4)cc3)CC2)nc2c1nnn2Cc1ccc(F)cc1 | > 100 µM (inactive) | > 100 | > 100 | > 100
O=C(COC(=O)c1ccc([N+](=O)[O-])s1)NCc1ccccc1 | 18.3 µM (inactive) | 34.8 | > 100 | 39.4
Cc1cc(=O)[nH]c(N/N=C/c2c(F)c(F)c(F)c(F)c2F)n1 | 64.6 µM (inactive) | 92.1 | > 100 | 82.3
CCC(=O)NC(=S)Nc1ccc(NC(=O)c2ccccc2[N+](=O)[O-])cc1 | > 100 µM (inactive) | > 100 | > 100 | > 100
CS/C(N)=N/N=C/c1cc(Br)cc(Br)c1O | 19.7 µM (inactive) | 34.7 | > 100 | > 100
COc1ccccc1-c1cc(C(=O)Nc2c(C)n(C)n(-c3ccccc3)c2=O)no1 | 6.68 µM | 39.2 | 88.1 | 19.5
CN(c1ccc(C(=O)Nc2ccccc2Sc2ccccc2)cc1)S(C)(=O)=O | > 100 µM (inactive) | > 100 | > 100 | > 100
Cc1[nH]c2c(C)cccc2c1CCNC(=O)c1ccc2c(c1[N+](=O)[O-])C(=O)c1ccccc1C2=O | > 100 µM (inactive) | > 100 | > 100 | > 100
CCc1cc(C(N)=S)ccn1 | 8.46 µM | 59.3 | > 100 | 12.8
CCOC(=O)c1ccc(N2CN(CCc3ccccc3)CNC2=S)cc1 | 26.9 µM | 91.5 | > 100 | > 100
Nc1ccc(N=Nc2ccccc2O)c(N)c1 | 6.58 µM | 33.8 | > 100 | 34
COc1cc(C(=O)NC2CCCCC2)ccc1OCc1ccc(Cl)cc1Cl | > 100 µM (inactive) | > 100 | > 100 | > 100
COC(=O)c1ccc(-c2cc(C(=O)O)c3cc4c(cc3n2)OCCO4)cc1 | > 100 µM (inactive) | > 100 | > 100 | > 100
CC(C)NC(=S)NN=C1c2ccccc2-c2ccccc21 | 35.7 µM (inactive) | 58.2 | > 100 | > 100
Cc1nnc(SCc2cccc(Cl)c2)n(N)c1=O | 4.43 µM | 12 | 18.1 | 10.1
CC(C)NC(=O)C(=O)NNC(=O)C12CC3CC(CC(C3)C1)C2 | 15.6 µM | 81.8 | > 100 | > 100
CC(=O)Nc1cccc(/C(C)=N/NC(N)=S)c1 | 7.9 µM | > 100 | > 100 | 28.6
COc1ccc(-c2cc(C(F)(F)F)nc(SCC(=O)Nc3sc4c(c3C#N)CCC4)n2)cc1 | 94 µM (inactive) | > 100 | > 100 | > 100
CSc1ncccc1C(=O)Nc1nc2ccc(Oc3ccccc3)cc2s1 | > 100 µM (inactive) | > 100 | > 100 | > 100
COC(=O)c1c(-c2ccc(OC)cc2)oc2ccc(-c3cc(OC)c(OC)c(OC)c3)cc12 | 7.72 µM | > 100 | > 100 | > 100
O=C(N/N=C/c1cccc(Br)c1)c1ccc(Cn2cc(Br)cn2)o1 | 99.8 µM (inactive) | > 100 | > 100 | > 100
Cc1cn([C@@H](CCCCNC(=O)OC(C)(C)C)C(=O)NCCCCCCCCCCC(=O)N2CCN(C(=O)OC(C)(C)C)CC2)nn1 | 97.7 µM (inactive) | > 100 | > 100 | > 100
Cc1ccc(Cn2c(C(C)Nc3nc(-c4ccc(Cl)cc4)cs3)nc3cc(C(=O)NCCCO)ccc32)cc1 (configuration not stated) | 73.5 µM (inactive) | 67.3 | 86.4 | > 100
Cc1ccc(CN2CCSc3ccc(C(=O)NC4CCN(Cc5ccccc5)CC4)cc32)cc1 | > 100 µM (inactive) | > 100 | > 100 | > 100
S=C(Nc1ccc(Cl)cc1)c1nc2ccccc2s1 | 43.2 µM (inactive) | > 100 | > 100 | > 100
